The subject of experiment [1] is type-II NADH dehydrogenase (NDH2). As to the kind of experiment: NDH2 activity, crude mitochondrial fraction, NADH at 340 nm. The format is biochemical, Plasmodium falciparum. How it is done:
A synchronized parasite culture was grown for 64 h and a crude mitochondrial fraction was prepared from trophozoite-stage cells (as confirmed by Giemsa staining). Infected red blood cells were collected by centrifugation at 800× g for 5 min at 4 °C and incubated for 5 min at room temperature with 40 mL of 0.075% (w/v) saponin in AIM buffer (120 mM KCl, 20 mM NaCl, 10 mM PIPES (1,4-piperazinediethanesulfonic acid) buffer [pH 6.7], 1 mM MgCl2, 5 mM glucose). Released parasites were collected by centrifugation at 2780× g for 7 min at 4 °C and washed three times with AIM buffer. […]
Complex II, DHODH, MQO, NDH2, G3PDH, and dihydroorotate-cytochrome c (DHO-cyt c) reductase activities were measured, as described previously, using a V-660 spectrophotometer (JASCO; Tokyo, Japan). Briefly, complex II activity was measured at 25 °C in a 1 mL reaction mixture containing 45 μM 2,6-dichlorophenolidophenol (DCIP), 100 μM ubiquinone-2 (UQ2), and 2 mM KCN in 50 mM potassium phosphate buffer, pH 8.0. DHODH, MQO, and G3PDH activities were measured at 25 °C in 1 mL of the reaction mixture containing 45 μM DCIP, 100 μM UQ2, and 2 mM KCN in 30 mM Tris-HCl buffer, pH 8.0. […] NDH2 activity was measured at 25 °C in 1 mL of the reaction mixture containing 100 µM UQ1 and 2 mM KCN in 50 mM potassium phosphate buffer, pH 8.0. […]

The subject of a further experiment is P. falciparum 3D7. As to the kind of experiment: Drug sensitivity assay, 72 h, PfLDH-based. The format is cell-based. Particulars: Plasmodium falciparum. How it is done:
The P. falciparum 3D7 strain was cultured, as described previously, in 3% hematocrit type A human red blood cells (RBCs) in RPMI1640 medium (Invitrogen; San Diego, CA, USA) supplemented with 25 mM sodium hydrogen biocarbonate, 10 μg/mL hypoxanthine, 40 μg/mL gentamicin sulfate, and 0.5% (w/v) Albumax II (Invitrogen) (“complete medium”). Cultures were maintained in a MG-70M multi-gas incubator (Taitec) under the conditions of 5% O2, 5% CO2, and 90% N2 at 37 °C. The medium was replaced daily. Parasitemia was measured by thin blood smears stained with Giemsa. In our previous study, we generated mutant P. falciparum strains expressing either disrupted or full-length versions of the flavoprotein (Fp) subunit (encoded by the Pfsdha gene). Both strains were cultured in complete medium at 3% hematocrit supplemented with 5 nM WR99210 (Jacobus Pharmaceuticals; Plainsboro, NJ, USA). The experiments using human RBCs were performed under the guidelines of Research Ethics Committee of the Faculty of Medicine of the University of Tokyo and Institutional Review Board (IRB) of Nagasaki University (Permission nos. 10050 and no. 19, respectively). Human RBCs were obtained from The Japanese Red Cross Society. The synchronization of parasite cultures was performed by treating with 5% (w/v) sorbitol for 10 min [77].
(§1) Synchronized ring-form parasites (0.3% parasitemia) were prepared in complete medium containing different concentration of various compounds (at a fixed final DMSO concentration of 0.1% (v/v)) and distributed to 96-well plates at 100 μL/well. After 72 h of incubation, parasite growth was monitored by the previously described lactate dehydrogenase (PfLDH)-based assay method; plates were read using a SpectraMax® Paradigm spectrophotometer (Molecular Devices, Inc.; San Jose, CA, USA). EC50 values were calculated using Prism® ver.6.01 (GraphPad; San Diego, CA, USA). Values are presented as the means of three independent experiments.

Experiment [2] relates to Dd2_048 (PI4K-S743T mutation). As to the kind of experiment: Growth inhibition of Dd2_048 (MMV390048-resistant). The experiment is classed as cell-based. The conditions noted are these: Plasmodium falciparum, read-out: Growth inhibition EC50, 048. As to the method: (§2) P. falciparum 3D7-yDHODH was prepared and maintained as described previously. P. falciparum Dd2, and Dd2-derived mutant strains were kindly provided by David A. Fidock, and maintained at Nagasaki University essentially as described in reference, except without supplementation with WR99210.
as §1

Experiment [3] deals with Dd2 and drug-resistant panel strains. Description: Growth inhibition across Dd2 and drug-resistant panel strains. The format is cell-based. Particulars: Plasmodium falciparum, DD2, read-out: EC50s for growth inhibition, range over strains. As to the method:
as §2, §1

Read-outs that look alike come from different tables or passages of the source.

On to `Cc1cc(O)c2c(c1)O[C@@]1(C)CC[C@H]3C(C)(C)CCC[C@]34CO[C@@H]2[C@H]41` [Siccanin], for which the “Effect on NDH2 activity” value in experiment [1] (10 µM) is on record as “did not inhibit”. For the same compound, the “Relative residual activity of NDH2” value in experiment [1] (siccanin 10 μM) is listed as 101.8 ± 8.1%. Further, the IC50 came to 6.1 ± 1 µM in the experiment on P. falciparum 3D7 (3D7, read-out: Growth IC50, parent (wild-type) 3D7); 11.5 ± 1.09 µM in the experiment on P. falciparum 3D7 (3D7, 72 h, 5 mM fumarate, read-out: Growth IC50 in presence of fumarate); 10.8 ± 2.16 µM in the experiment on P. falciparum 3D7 (3D7, 72 h, 5 mM succinate, read-out: Growth IC50 in presence of succinate); 8.4 µM with P. falciparum 3D7 (3D7, 72 h, no succinate or fumarate added, read-out: Growth IC50, P. falciparum). Besides, the EC50 in the experiment on P. falciparum 3D7 (3D7, Figure 6a, read-out: Growth inhibition EC50, 3D7 (parent)) was 11.7 µM; in experiment [2] it was 13.5 µM; in experiment [3], 12.4 to 18.7 µM.
